Test [1] has as its target T1, F1-gp120 binding to CD4+ human cells (Human immunodeficiency virus type 1 group M subtype B, UniProt P04578).
T1 construct: Recombinant gp-120 was obtained from Raymond Sweet at Smith Kline Beecham and directly fluoresceinated; purchased Raymond Sweet at Smith Kline Beecham (obtained, not a catalogue product); host or cells: CD4+ human cells (Jurkat CD4+)
The test can be described thus: Inhibition of fluoresceinated gp120 binding to CD4+ cells (flow microfluorimetry). Particulars: compound 1 mg. How it is done: This assay uses fluoresceinated gp120 and monitors its ability to bind to CD4+.
Recombinant gp-120 was obtained from Raymond Sweet at Smith Kline Beecham and directly fluoresceinated. Flow microfluorimetry was performed using a FACScan. Chen, et al., (1992) Proc. Nat'l. Acad. Sci. U.S.A., 89:5872-5876; Weiner, et al., (1990) Cancer Detection and Prevention, 14:317-320; and Weiner, et al., (1990) Vaccines, 339-345, discloses the assay was done using the CD4 related synthetic compounds or, separately, monoclonal anti-CD4 antibody as described.

The test system of a further test is CD4+ T cells. The test can be described thus: Blocking of T cell activation by tetanus toxoid (3H-TdR incorporation). Particulars: 10^4 T cells + tetanus toxoid, 48 hours. Type of test: cell-based. Further details: dose or concentration left out as unconfirmed. How it is done: 10^4 blood monocytes were pulsed with […] of tetanus toxoid for
hours. 10^4 CD4+ T cells were added with the compounds […] in
a final volume of […] of media. The cells were pulsed with […]
HTdR and assayed at 48 hours.

In test [2] the test system is ABA delayed type hypersensitivity. The test can be described thus: In vivo inflammation: delayed type hypersensitivity to azobenzenearsonate (ABA). The arrangement: species or system mouse. The note with it: 100 μg total dose. How it is done: The effects of macrocyclics on in vivo inflammation were examined as follows. The effects of cyclic compounds disclosed in Table I on in vivo inflammatory response to Azobenzenearsonate was performed using treated groups of ABA primed normal Balb/c or Va3.1 transgenic mice with either 1) intravenously administered anti-CD4 monoclonal antibodies, 2) intravenously administered anti-class II antibodies, 3) systemically administered soluble forms of the most efficacious constrained macrocyclics 4) intravenously administered ABA coupled mononuclear cells, and 5) control antibodies and control macrocyclics. […]
The delayed type hypersensitivity assay is performed as follows. Five days after priming a mouse with hapten coupled cells, the hind left footpad is measured using an engineer's caliper (Fowler). […] Twenty four hours later, the degree of swelling is measured in the footpad. […]
For priming, mice (normal or transgenic with a T-cell receptor that recognizes ABA) are injected subcutaneously in each flank using a 23 g needle with 0.1 ml of ABA- or TNP-coupled spleen cells (3×10^7).Five days later, ear thickness and footpad thickness is measured with a caliper. […] Twenty four hours after challenge, the ears and footpads are measured and the animals sacrificed by cervical dislocation. […]

The next test concerns the target T2, sCD4 binding to DRb2 (Homo sapiens, UniProt P01911).
T2 construct: made in house
Kind of test: CD4 receptor-DRb2 blocking: 125I-sCD4 binding to immobilized DRb2 peptide. Here is the method: The peptidic fragment is first coupled to activated sepharose 4B (0.5 mg of peptide/ml of beads).
75 μg of the recombinant soluble CD4 was labelled with 2 mCi of Bolotn Hunter reagent (Dupont/New England Nuclear) in 100 mM sodium borate, pH 8.5, in a volume of 150 μl. The labelled CD4 was separated from the unconjugated reagent on a G-50 Sephadex column containing PBS/0.1% gelatin and stored at -70° C.
HPLC purified forms of the DRb2 peptide were prepared. The peptide ([…] in 0.1M ammonium bicarbonate, pH 7.8) was immobilized on Falcon microtiter plates by overnight exposure. After washing several times and blocking with 2% BSA in HBSS pH 7.6 for 2 hours we add […] of ^125 I labelled sCD4. After 1 hour at room temperature the wells are washed 5× and the radioactivity counted.

The test system of test [3] is responder CD4+ T cells + allogeneic cells. The test can be described thus: Blocking of the mixed lymphocyte response. Type of test: cell-based, human. Particulars: .1 mg printed in table line. Here is the method: Responder purified CD4+ T cells were used in a mixed lymphocyte response against completely allogeneic human cells. The compounds were added at 10 μg/ml final concentration. The number of responder cells was 10^5 and the number of stimulators 4×10^5 cells per well.

For a further test, the system named is HIV-1MN. The test can be described thus: Syncytium assay, HIV. It counts as cell-based. Particulars: for syncytia: none 100. How it is done:
Chen, et al., (1992) Proc. Nat'l. Acad. Sci. U.S.A., 89:5872-5876; Weiner, et al. (1990) Cancer Detection and Prevention, 14:317-320, discloses Sup T1 cells are used as target cells because of their rapid and high degree of fusion when co-cultured with HIV-1 producing cell lines. Uninfected target cells were assayed by co-culture with HIV-infected cells (H9/IIIB.) Washed, HIV-infected cells are plated in 96-well plates (10^4 cells/well in RPMI 1640+10% FCS) and incubated for 30 min at 37° C. Target cells are then added at 5×10^5 /well and the number of syncytia is qualitatively determined after a 48-hour incubation period. CD4 forms to be tested are added at time 0 or 24 hours after the assay has been initiated. Graded doses are used, controls including random linear peptides are also added independently. sCD4 and antibodies to CD4 are used as positive controls.
Another neutralization assay which is used in the field is as follows. One hundred TCID50 of HIV-1/IIIB or HIV-1/MN cell-free virus is preincubated with serial dilutions of compounds for 1 hour at 37° C. Following incubation, the pretreated virus was then plated on 4×10^4 MT-2 target cells, for 1 hour at 37° C. The MT-2 cells were then washed 3 times and incubated at 37° C. with 5% CO2. Fusion was evaluated 3 days later quantitatively by counting the number of syncytia per well in triplicate under a phase contrast microscope. The neutralization value (the ability of a compound to inhibit HIV infection 0 Vn/Vo) is calculated by dividing the mean number of syncytia per well following treatment with specific antiserum by the mean number of syncytia per well without antiserum (see: Montefiori, et al., (1988) J. Clin. Microbiol., 26:231-235).

What is called % Inhibition is the change of the read-out against control, counted positive when it falls.

Bridge positions count the residues as written; N and C are the ends. Ends that are not written are not given here. Peptide text beside a SMILES is read from it.

Consider `CC(C)C[C@@H]1NC(=O)[C@H](Cc2ccccc2)NC(=O)[C@H](CO)NC(=O)CNC(=O)[C@H](CCC(N)=O)NC(=O)[C@H](CC(N)=O)NC(=O)[C@@H](NC(=O)[C@@H](N)Cc2ccc(O)cc2)CSSC[C@@H](C(=O)N[C@@H](Cc2ccc(O)cc2)C(=O)O)NC1=O` [SEQ ID NO:1, Y, C, N, Q, G, S, F, L, C, Y] (H-YCNQGSFLCY-OH; disulfide 2-9), for which the “% Inhibition” value in test [1] is listed as 33%. For the same compound, in the test with CD4+ T cells, the “% response” value was determined as 77%.
Consider `C[C@@H](O)[C@@H]1NC(=O)[C@@H](NC(=O)[C@@H](N)Cc2ccccc2)CSSC[C@@H](C(=O)N[C@@H](Cc2ccc(O)cc2)C(=O)O)NC(=O)[C@H](CCCCN)NC(=O)[C@H](CO)NC(=O)[C@@H]2CCCN2C(=O)CNC(=O)[C@H](CCCCN)NC1=O` [SEQ ID NO:3, F, C, T, K, G, P, S, K, C, Y] (H-FCTKGPSKCY-OH; disulfide 2-9), for which the “% Inhibition” value in test [1] is recorded as 83%.
For `CC(C)[C@@H]1NC(=O)[C@H](CCC(=O)O)NC(=O)[C@@H](NC(=O)[C@@H](N)Cc2ccccc2)CSSC[C@@H](C(=O)N[C@@H](Cc2ccc(O)cc2)C(=O)O)NC(=O)[C@H](CCC(=O)O)NC(=O)[C@H](CCCCN)NC(=O)[C@H](CCC(N)=O)NC(=O)[C@H](CC(=O)O)NC(=O)[C@H](CCC(=O)O)NC1=O` [SEQ ID NO:8, F, C, E, V, E, D, Q, K, E, C, Y] (H-FCEVEDQKECY-OH; disulfide 2-10), the “% Inhibition” value in test [1] is 83%.
Turning to `CC(C)C[C@@H]1NC(=O)[C@@H](NC(=O)[C@@H](N)Cc2ccccc2)CSSC[C@@H](C(=O)N[C@@H](Cc2ccc(O)cc2)C(=O)O)NC(=O)[C@H](CC(C)C)NC(=O)[C@H](C(C)C)NC(=O)[C@H](CCC(N)=O)NC(=O)CNC(=O)[C@H](CO)NC(=O)[C@H](CC(=O)O)NC(=O)[C@H](CO)NC1=O` [SEQ ID NO:9, F, C, L, S, D, S, G, Q, V, L, C, Y] (H-FCLSDSGQVLCY-OH; disulfide 2-11), the “% Inhibition” value in test [1] is 8%. The “% response” value in the test with CD4+ T cells amounted to 100%.
As to “CDR2R: macrocyclic compound modeled to bind to the reovirus receptor on activated T cells; probably SEQ ID NO:10 (FKTNKCIYSGSTCQF; disulfide 6-13 (inferred))”, in test [2], the “reducing in vivo delayed type hypersensitivity to ABA” value is recorded as “efficacious”.
Turning to “F, C, Y, I, C, E, V, E, D, Q, C, Y (FCYICEVEDQCY; also: cyclized, ring type and places not given here) [SEQ ID NO:7, CD4, 84-91 cyclized, CDR3-like, Human]”, the “% inhibition of sCD4 binding” value in the test with sCD4 binding to DRb2 (.1 mg compound, first experiment) is 48%; with sCD4 binding to DRb2 (.5 mg compound, first experiment) it was 88%; in the test with sCD4 binding to DRb2 (Experiment 2, amount not given) it was 100%. The “Bound CD4 (cpm)” value in the test with sCD4 binding to DRb2 (.1 mg compound, first experiment (none 3600, no DRb2 1100)) worked out at 2400 cpm; with sCD4 binding to DRb2 (.5 mg compound, first experiment (none 3600, no DRb2 1100)), 1400 cpm; with sCD4 binding to DRb2 (Experiment 2, amount not printed (none 2000, no DRb2 1100)) it was 800 cpm. In test [1], the “% Inhibition” value stood at 75%. In test [1] (none 21, background 9), the “Mean Channel Fluorescence” value was found to be 12. In addition, in the test with CD4+ T cells, the “% response” value was 55%. The “3H-TdR incorporation (cpm)” value in the test on CD4+ T cells (none 45,090 cpm) is given as 25,000 cpm. In addition, in test [3], the “% inhibition of MLR” value turned out to be 48%. The “(cpm)” value in test [3] (control 85,000) is reported as 55,000 cpm. Besides, the “% protection from syncytia” value in the test with HIV-1MN (6.125 μg) is given as 48%; in the test on HIV-1MN (12.5 μg), 88%. Besides, the values for the syncytia with HIV-1MN (6.125 μg) and in the test with HIV-1MN (12.5 μg) were 35 and 15, respectively.

The record behind these values is US6100377A, “Constrained peptides” (The Trustees of the University of Pennsylvania, priority 1994, dated 2000).
